Results taken from patent US20240383898A1, “PYRIDO RING COMPOUND, PREPARATION METHOD THEREFOR, INTERMEDIATE, COMPOSITION, AND APPLICATION” (YIYOU BIOTECH (SHANGHAI) CO., LTD, priority 2021, published 2024).

What was measured:
JAK1 = target: T1, JAK1 (Homo sapiens, UniProt P23458); test: In vitro activity test of JAK1 kinase (Caliper EZ Reader conversion assay); type: biochemical; details: enzyme activity, 10 concentrations from 1000 nM, 3-fold dilution
T1 construct: purchased Carna 08-114
Description: (§1) In Vitro Activity Test of JAK1 and JAK2 Kinases
(§2) • Centrifuge (manufacturer: Eppendorf, model: 5430) • ELISA Instrument (Manufacturer: Perkin Elmer, Model: Caliper EZ Reader 1I) • Echo 550 (Manufacturer: Labcyte, Model: Echo 550)
(§3) (1) Prepare 1 Kinase buffer.
(§4) (2) Compound concentration gradient preparation: The test compound was tested at 1000 nM, 3-fold dilution, 10 concentrations, two-well assay, and configured to a 100-fold final concentration in a 384-well plate. 250 nl of the test compound was then transferred to the 384 reaction plate using Echo550. 250 nl of 100% DMSO was added to each of the negative and positive control wells.
(§5) (3) Prepare 2.5 times the final concentration of kinase solution with 1×Kinase buffer.
(§6) (4) Add 10 μL of 2.5 times the final concentration of kinase solution to the compound wells and 10 μL of 1×Kinase buffer to the negative control wells.
(§7) (5) Centrifuge at 1000 rpm for 30 seconds, mix well with shaking, and incubate at room temperature for 10 minutes.
(§8) (6) Prepare a 25/15-fold final concentration of mixture of ATP and Kinase substrate with 1×Kinase buffer.
(§9) (7) Add 15 μL of a mixture of 25/15 times the final concentration of ATP and substrate to start the reaction.
(§10) (8) Centrifuge the 384-well plate at 1000 rpm for 30 seconds, mix well with shaking, and incubate at room temperature for an appropriate amount of time.
(§11) (9) Stop the kinase reaction by adding 30 μL of termination solution, centrifuge at 1000 rpm for 30 seconds, and mix well with shaking.
(§12) (10) Read the conversion rate with Caliper EZ Reader.
(§13) where: Conversion %_sample is the conversion rate reading of the sample-, Conversion %_min: the average value of the negative control wells, representing the conversion reading of the wells without enzyme activity: Conversion %-max: the average value of the positive control wells, representing the conversion reading of the wells without compound inhibition.
(§14) The log value of concentration was used as the X-axis and the percentage inhibition as the Y-axis, and the function of the analytical software GraphPad Prism 5; log(inhibitor) vs. response -Variable slope, was used to lit dose-effect curves to obtain the IC50) values of each compound on enzyme activity.
(§15) The formula is Y=Bottom+(Top-Bottom)/(1+10^((LogIC50-X)*HillSlope))
(§16) The 1C50 data are specified in Table 1.

JAK2 = target: T2, JAK2 (Homo sapiens, UniProt O60674); test: In vitro activity test of JAK2 kinase (Caliper EZ Reader conversion assay); type: biochemical; details: enzyme activity, 10 concentrations from 1000 nM, 3-fold dilution
T2 construct: purchased Carna 08-045
T2 sequence (O60674 whole entry, species assumed): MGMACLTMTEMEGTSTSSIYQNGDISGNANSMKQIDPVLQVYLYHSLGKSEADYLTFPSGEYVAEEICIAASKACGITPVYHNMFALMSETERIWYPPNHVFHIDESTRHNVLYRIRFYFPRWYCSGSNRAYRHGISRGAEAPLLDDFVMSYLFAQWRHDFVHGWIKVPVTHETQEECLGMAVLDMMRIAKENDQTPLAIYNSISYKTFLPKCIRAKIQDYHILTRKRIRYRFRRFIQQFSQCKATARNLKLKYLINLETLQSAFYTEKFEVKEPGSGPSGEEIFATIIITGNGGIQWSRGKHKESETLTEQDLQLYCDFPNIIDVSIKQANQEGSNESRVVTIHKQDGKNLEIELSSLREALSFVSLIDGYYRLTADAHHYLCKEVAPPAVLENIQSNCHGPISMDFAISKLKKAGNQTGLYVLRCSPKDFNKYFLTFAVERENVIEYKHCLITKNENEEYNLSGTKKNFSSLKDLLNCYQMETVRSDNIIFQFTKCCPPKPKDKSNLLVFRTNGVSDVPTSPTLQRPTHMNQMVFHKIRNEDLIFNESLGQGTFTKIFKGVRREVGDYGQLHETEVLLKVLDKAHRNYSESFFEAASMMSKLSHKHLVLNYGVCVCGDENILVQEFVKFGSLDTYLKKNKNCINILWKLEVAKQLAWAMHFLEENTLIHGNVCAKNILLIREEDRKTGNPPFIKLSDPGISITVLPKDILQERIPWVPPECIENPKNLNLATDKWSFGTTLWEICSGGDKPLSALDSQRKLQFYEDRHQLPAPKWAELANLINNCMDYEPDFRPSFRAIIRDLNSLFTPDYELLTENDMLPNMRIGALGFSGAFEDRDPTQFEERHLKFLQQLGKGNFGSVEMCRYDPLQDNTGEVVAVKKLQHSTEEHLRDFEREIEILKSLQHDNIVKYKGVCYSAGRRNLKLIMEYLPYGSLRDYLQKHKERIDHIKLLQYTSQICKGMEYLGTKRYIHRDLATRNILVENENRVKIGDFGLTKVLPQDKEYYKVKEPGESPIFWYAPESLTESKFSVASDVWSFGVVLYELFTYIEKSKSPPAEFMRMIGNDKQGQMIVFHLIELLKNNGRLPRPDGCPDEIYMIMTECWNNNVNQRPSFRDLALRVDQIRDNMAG
Description: as §1, §2, §3, §4, §5, §6, §7, §8, §9, §10, §11, §12, §13, §14, §15, §16

T1 sequence (P23458 whole entry, species assumed): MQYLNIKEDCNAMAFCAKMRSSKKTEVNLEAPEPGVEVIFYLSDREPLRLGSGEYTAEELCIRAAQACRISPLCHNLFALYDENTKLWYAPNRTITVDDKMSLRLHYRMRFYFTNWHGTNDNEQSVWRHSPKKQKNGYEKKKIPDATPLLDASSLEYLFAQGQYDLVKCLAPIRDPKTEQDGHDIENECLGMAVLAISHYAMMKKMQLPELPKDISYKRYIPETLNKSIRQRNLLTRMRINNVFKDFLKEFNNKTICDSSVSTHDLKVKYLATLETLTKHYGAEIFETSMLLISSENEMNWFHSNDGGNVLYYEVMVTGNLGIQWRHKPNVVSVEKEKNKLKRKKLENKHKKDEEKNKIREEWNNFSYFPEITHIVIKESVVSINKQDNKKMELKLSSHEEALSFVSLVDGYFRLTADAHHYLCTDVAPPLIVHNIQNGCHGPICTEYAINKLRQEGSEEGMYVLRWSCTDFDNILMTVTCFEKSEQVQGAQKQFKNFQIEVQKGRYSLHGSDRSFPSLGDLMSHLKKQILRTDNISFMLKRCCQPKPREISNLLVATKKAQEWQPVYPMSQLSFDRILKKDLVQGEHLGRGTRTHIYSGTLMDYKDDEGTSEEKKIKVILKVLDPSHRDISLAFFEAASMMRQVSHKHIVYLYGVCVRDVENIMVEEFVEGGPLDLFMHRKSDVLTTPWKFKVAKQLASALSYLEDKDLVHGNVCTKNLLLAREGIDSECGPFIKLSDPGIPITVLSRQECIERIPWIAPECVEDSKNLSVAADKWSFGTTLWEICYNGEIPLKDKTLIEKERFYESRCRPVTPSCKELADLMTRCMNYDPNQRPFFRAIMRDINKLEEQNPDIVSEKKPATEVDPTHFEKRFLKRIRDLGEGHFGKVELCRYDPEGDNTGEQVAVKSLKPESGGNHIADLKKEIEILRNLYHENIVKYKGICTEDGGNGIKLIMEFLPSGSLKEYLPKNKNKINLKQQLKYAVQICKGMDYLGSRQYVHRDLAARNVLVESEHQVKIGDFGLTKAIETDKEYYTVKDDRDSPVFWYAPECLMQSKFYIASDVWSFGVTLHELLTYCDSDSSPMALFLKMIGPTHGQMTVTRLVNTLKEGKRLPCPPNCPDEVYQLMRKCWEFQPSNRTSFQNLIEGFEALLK

| SMILES | IC50 (JAK1) [nM] | IC50 (JAK2) [nM] |
| --- | --- | --- |
| O=S(=O)(C1CC1)N1CCC(n2c(-c3ccc(CO)o3)nc3cnc4[nH]ccc4c32)C1 (stereo not shown) [LXS45, (5-(1-(1-(cyclopropylsulfonyl)pyrrolidin-3-yl)-1,6-dihydroimidazo[4,5-d]pyrrolo[2,3-b]pyridin-2-yl)furan-2-yl)methanol] | 10 to 100 | 10 to 100 |
| CCCS(=O)(=O)N1CCC(n2c(-c3cccnc3N)nc3cnc4[nH]ccc4c32)C1 (stereo not shown) [LXS47, 3-(1-(1-(propylsulfonyl)pyrrolidin-3-yl)-1,6-dihydroimidazo[4,5-d]pyrrolo[2,3-b]pyridin-2-yl)pyridin-2-amine] | 100 to 1000 | 100 to 1000 |
| C[C@@H](O)c1nc2cnc3[nH]ccc3c2n1C1CCN(CCC#N)C1 (stereo partly drawn) [LXS49, 3-(3-(2-((R)-1-Hydroxyethyl)imidazo[4,5-d]pyrrolo[2,3-b]pyridin-1(6H)-yl)pyrrolidin-1-yl)propanenitrile] | 10 to 100 | 100 to 1000 |
| Cc1ccc(-c2nc3cnc4[nH]ccc4c3n2-c2cnn(CCC#N)c2)o1 [LXS50, 3-(4-(2-(5-Methylfuran-2-yl)imidazo[4,5-d]pyrrolo[2,3-b]pyridin-1(6H)-yl)-1H-pyrazol-1-yl)propanenitrile] | 100 to 1000 | < 10 |
| N#CCCN1CCC(n2c(-c3ccc(CO)o3)nc3cnc4[nH]ccc4c32)C1 (stereo not shown) [LXS51, 3-(3-(2-(5-(Hydroxymethyl)furan-2-yl)imidazo[4,5-d]pyrrolo[2,3-b]pyridin-1(6H)-yl)pyrrolidin-1-yl)propanenitrile] | 10 to 100 | 10 to 100 |
| C[C@@H](O)c1nc2cnc3[nH]ccc3c2n1-c1ccc(C#N)cc1 [LXS54, (R)-4-(2-(1-Hydroxyethyl)imidazo[4,5-d]pyrrolo[2,3-b]pyridin-1(6H)-yl)benzonitrile] | 100 to 1000 | 100 to 1000 |
| N#Cc1ccc(-n2c(-c3cccc(O)c3)nc3cnc4[nH]ccc4c32)cc1 [LXS56, 4-(2-(3-Hydroxyphenyl)imidazo[4,5-d]pyrrolo[2,3-b]pyridin-1(6H)-yl)benzonitrile] | 10 to 100 | 100 to 1000 |
| C[C@@H](O)c1nc2cnc3[nH]ccc3c2n1[C@@H]1CCN(CCC#N)C1 [LXS58, 3-((R)-3-(2-((R)-1-Hydroxyethyl)imidazo[4,5-d]pyrrolo[2,3-b]pyridin-1(6H)-yl)pyrrolidin-1-yl)propanenitrile] | 10 to 100 | 10 to 100 |
| C[C@@H](O)c1nc2cnc3[nH]ccc3c2n1[C@H]1CCN(CCC#N)C1 [LXS59, 3-((S)-3-(2-((R)-1-hydroxyethyl)imidazo[4,5-d]pyrrolo[2,3-b]pyridin-1(6H)-yl)pyrrolidin-1-yl)propanenitrile] | 10 to 100 | 100 to 1000 |

Second part, the compound after the results:

| IC50 (JAK1) [nM] | IC50 (JAK2) [nM] | SMILES |
| --- | --- | --- |
| 10 to 100 | < 10 | N#CCCn1cc(-n2c(-c3ccc(CO)o3)nc3cnc4[nH]ccc4c32)cn1 [LXS46, 3-(4-(2-(5-(Hydroxymethyl)furan-2-yl)imidazo[4,5-d]pyrrolo[2,3-b]pyridin-1(6H)-yl)-1H-pyrazol-1-yl)propanenitrile] |
| 10 to 100 | 100 to 1000 | C[C@@H](O)c1nc2cnc3[nH]ccc3c2n1C1CCN(CC#N)C1 (stereo partly drawn) [LXS48, 2-(3-(2-((R)-1-Hydroxyethyl)imidazo[4,5-d]pyrrolo[2,3-b]pyridin-1(6H)-yl)pyrrolidin-1-yl)acetonitrile] |
| 100 to 1000 | 10 to 100 | N#CCN1CCC(n2c(-c3ccc(CO)o3)nc3cnc4[nH]ccc4c32)C1 (stereo not shown) [LXS52, 2-(3-(2-(5-(hydroxymethyl)furan-2-yl)imidazo[4,5-d]pyrrolo[2,3-b]pyridin-1(6H)-yl)pyrrolidin-1-yl)acetonitrile] |
| 100 to 1000 | 100 to 1000 | N#Cc1ccc(-n2c(-c3ccc(CO)o3)nc3cnc4[nH]ccc4c32)cc1 [LXS55, 4-(2-(5-(Hydroxymethyl)furan-2-yl)imidazo[4,5-d]pyrrolo[2,3-b]pyridin-1(6H)-yl)benzonitrile] |
| 100 to 1000 | 100 to 1000 | CS(=O)(=O)c1ccc(C2Nc3cnc4[nH]ccc4c3N2c2ccc(C#N)cc2)cc1 (stereo not shown) [LXS57, 4-(2-(4-(Methylsulfonyl)phenyl)-2,3-dihydroimidazo[4,5-d]pyrrolo[2,3-b]pyridin-1(6H)-yl)benzonitrile] |
